Source: article PMC8080777, “Discovery, optimization, and evaluation of non-bile acid FXR/TGR5 dual agonists” (Scientific Reports, 2021)
pEC50: −log10 of the molar value.

What was measured:
TGR5 = target: T1, TGR5 (Homo sapiens, UniProt Q8TDU6); assay: TGR5 cAMP assay in CHO cells transfected with TGR5 (cAMP Hunter eXpress, Discover X); type: cell-based; details: for TGR5 Efficacy (%) (1 µM) / TGR5 Efficacy (%) (10 µM): % vs INT-767 10 µM as 100%; for pEC50: 4 parameter logistic fit
T1 construct: host or cells: CHO cells
T1 sequence (Q8TDU6 1-330): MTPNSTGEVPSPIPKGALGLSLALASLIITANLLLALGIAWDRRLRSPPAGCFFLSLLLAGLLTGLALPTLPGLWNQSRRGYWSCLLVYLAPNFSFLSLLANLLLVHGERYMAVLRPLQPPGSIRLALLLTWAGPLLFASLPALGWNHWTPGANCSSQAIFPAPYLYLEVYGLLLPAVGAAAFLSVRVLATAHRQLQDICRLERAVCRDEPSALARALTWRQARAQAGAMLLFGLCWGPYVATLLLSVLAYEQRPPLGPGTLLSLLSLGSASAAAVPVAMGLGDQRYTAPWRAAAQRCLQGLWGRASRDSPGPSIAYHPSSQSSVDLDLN

OGTT blood glucose = type: in vivo; details: single oral 100 mg/kg, overnight-fasted C57 mice, 2 g/kg glucose one hour later, blood 15 min after loading
Protocol: To measure blood glucose levels, 100 mg/kg of test compounds 20p and 20q or vehicle were administered orally to overnight-fasted C57 mice (n = 5 mice/group, control; n = 10). One hour later, all mice were challenged with 2 g/kg glucose, and blood samples were collected after 15 min of glucose loading. The blood glucose levels were measured using LabAssay Glucose (FUJIFILM Wako Pure Chemical Corporation, Osaka City, Osaka, Japan)[56].
Amersham Place Little Chalfont Buckinghamshire, HP7 9NA UK), and cDNA was synthesized using ReverTra Ace qPCR RT Master Mix (Toyobo Co., Ltd., Osaka City, Osaka, Japan). Real-time PCR was performed using a CFX96 Touch Real-Time PCR Analysis System (CFX Manager, Bio-Rad, 1000 Alfred Nobel Drive, Hercules, CA, USA), and the mRNA expression levels of SHP and CYP7A1, the target gene s of FXR, were measured using the intercalator […]
In vivo assay protocol (GLP-1)
Measurement of GLP-1 secretion: To measure plasma GLP-1 levels, 100 mg/kg of compounds 20p and 20q were administered orally to overnight -fasted C57 mice (n=5 animals/group). One hour later, all mice were challenged with 2 g/kg glucose, and blood samples were collected after 15 min of glucose challenge test. Plasma GLP-1 levels were measured using the GLP-1 ELISA Kit Wako, High Sensitive (FUJIFILM Wako Pure Chemical Corporation, Osaka city, Osaka, […]
In vivo assay protocol (OGTT test) […]

Row | TGR5 agonist activity (in words) (TGR5) | TGR5 Efficacy (%) (1 µM) (TGR5) | TGR5 Efficacy (%) (10 µM) (TGR5) | pEC50 (TGR5) | SMILES | Blood glucose level on OGTT (OGTT blood glucose)
1 | strong dual agonist potencies | 51.1% | 62.4% | 6.38 | COc1cc(Cl)cc(N(CC23CCC(c4ccc(OC)c(C#N)c4)(CC2)CC3)C(=O)c2ccncc2C)c1 [Compound 20p] | robustly lowered the blood glucose level
2 | strong dual agonist potencies | 51.2% | 80.2% | 6.10 | COc1ccc(C23CCC(CN(C(=O)c4ccncc4C)c4cc(Cl)cc(Cl)c4)(CC2)CC3)cc1C#N [Compound 20q] | did not reduce the blood glucose level
